Consider five molecules from ChEMBL document CHEMBL1151604, “Enantiomerically pure synthesis and antiviral evaluation of [(2S, 3S)-bis(hydroxymethyl)azetidin-1-yl] purine nucleosides: Analogs of oxetanocin-A” (Bioorg Med Chem Lett, 1995).

What all share (assay type): functional, cell-based
Test [1] has as its system Vero. The experiment in a line: In vitro evaluation of antiviral activity against HSV-2 (Herpes simplex virus-2) induced cytopathic effect in vero cells by a plaque reduction assay. To be noted: Chlorocebus sabaeus. On the technique in general: Cytopathic effects are the visible damage that an infection or toxin causes in cultured cells.
In test [2] the test system is Vero. The test is described as follows: In vitro evaluation of antiviral activity against HSV-1 (Herpes simplex virus-1) induced cytopathic effect in vero cells by a plaque reduction assay. To be noted: Chlorocebus sabaeus.
A further test relates to MT4. The experiment in a line: In vitro evaluation of antiviral activity against HSV-1 (Herpes simplex virus-1) induced cytopathic effect in MT-4 cells by indirect immunofluorescence assay. The conditions noted are these: Homo sapiens.
Test [3] concerns Vero. The test is described as follows: Compound was evaluated for cytotoxicity against vero cells up to a concentration of 100 ug/mL; non toxic. To be noted: Chlorocebus sabaeus.

Each structure is given as a SMILES string. Converted amounts (≈) assume the structure as drawn.

Regarding `Nc1nc2c(ncn2COCCO)c(=O)[nH]1` [ACYCLOVIR], the EC50 with Vero [1] stood at 0.39 µg/mL (≈ 1.73 µM); with Vero [2], 0.32 µg/mL (≈ 1.42 µM).

With `Cc1cn([C@H]2C[C@H](N=[N+]=[N-])[C@@H](CO)O2)c(=O)[nH]c1=O` [ZIDOVUDINE], the EC50 in the test on MT4 is 0.0032 µg/mL (≈ 0.012 µM).

As for `Nc1nc(O)c2ncn(N3CC(CO)C3CO)c2n1` (configuration not stated), the Activity entry in the test on Vero [3] was “Not toxic”. The 50% effective concentration (EC50) was 0.46 µg/mL (≈ 1.73 µM) with MT4, 6.32 µg/mL (≈ 23.7 µM) with Vero [1] and 5.36 µg/mL (≈ 20.1 µM) in the test on Vero [2].

In the test on MT4, `O=c1[nH]cnc2c1ncn2[C@H]1CC[C@@H](CO)O1` [DIDANOSINE] registered an EC50 of 0.46 µg/mL (≈ 1.95 µM).

Consider `Nc1ncnc2c1ncn2N1CC(CO)C1CO` (configuration not stated), for which, in the test with Vero [3], the Activity entry was “Not toxic”. The EC50 with MT4 turned out to be 0.37 µg/mL (≈ 1.48 µM); in the test on Vero [1], 34.9 µg/mL (≈ 139 µM); in the test on Vero [2] it was 33.2 µg/mL (≈ 133 µM).

By EC50 is commonly meant the midpoint of the concentration-response curve. Low values mean greater potency, high ones weaker potency.
